# Results taken from PubChem BioAssay (NCI).
#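 Test compounds were applied to cells in 96-well plates for 48 hours at 5 doses. Abbreviation: GI50, concentration required for 50% inhibition of growth. Definition used: TGI = concentration required for complete inhibition of growth.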
# Tests used:
# Experiment in all cases: NCI anticancer screen, dose series, 48 h
# ACHN renal = tested on: ACHN renal
# CCRF-CEM leukemia = tested on: CCRF-CEM leukemia
# HCT-15 colon = tested on: HCT-15 colon
# K-562 leukemia = tested on: K-562 leukemia
# M14 melanoma = tested on: M14 melanoma
# NCI-H522 lung = tested on: NCI-H522 lung
# OVCAR-3 ovarian = tested on: OVCAR-3 ovarian
# SF-295 CNS = tested on: SF-295 CNS
# SK-OV-3 ovarian = tested on: SK-OV-3 ovarian
# UO-31 renal = tested on: UO-31 renal
Compound,TGI (ACHN renal),TGI (CCRF-CEM leukemia),TGI (HCT-15 colon),TGI (K-562 leukemia),TGI (M14 melanoma),TGI (NCI-H522 lung),TGI (OVCAR-3 ovarian),TGI (SF-295 CNS),TGI (SK-OV-3 ovarian),TGI (UO-31 renal),GI50 (ACHN renal),GI50 (CCRF-CEM leukemia),GI50 (HCT-15 colon),GI50 (K-562 leukemia),GI50 (M14 melanoma),GI50 (NCI-H522 lung),GI50 (OVCAR-3 ovarian),GI50 (SF-295 CNS),GI50 (SK-OV-3 ovarian),GI50 (UO-31 renal)
CN1C(=O)CN2C(Cl)(Cl)C2(c2ccccc2)c2cc(Cl)ccc21 (stereo not given),> 100 µM,> 100 µM,> 100 µM,> 100 µM,> 100 µM,> 100 µM,> 100 µM,> 100 µM,> 100 µM,> 100 µM,,,,,,,,,,
CCP(=O)(CC)C(Cl)(Cl)C(O)C(Cl)(Cl)Cl (stereo not given),> 100 µM,> 100 µM,> 100 µM,> 100 µM,> 100 µM,> 100 µM,> 100 µM,> 100 µM,> 100 µM,> 100 µM,,,,,,,,,,
CCCCCCCCCC/C=C/C=O,> 100 µM,> 100 µM,> 100 µM,> 100 µM,> 100 µM,> 100 µM,> 100 µM,> 100 µM,> 100 µM,> 100 µM,,,,,,,,,,
NCCCn1c2c(c3ccc([N+](=O)[O-])cc3c1=O)C(=O)c1cc(F)ccc1-2,0.142 µM,0.779 µM,0.647 µM,0.331 µM,0.104 µM,0.116 µM,0.152 µM,0.142 µM,0.349 µM,0.19 µM,0.0241 µM,< 0.0144 µM,0.0595 µM,< 0.0205 µM,0.0297 µM,< 0.01 µM,0.031 µM,0.0157 µM,0.0139 µM,0.0324 µM
Cc1cc(C)c(NC(=O)/C=C/c2ccccc2)c(C)c1,> 100 µM,> 100 µM,> 100 µM,> 100 µM,> 100 µM,61.8 µM,> 100 µM,> 100 µM,> 100 µM,> 100 µM,,,,,,,,,,
C#C[C@]1(O)[C@@H](CO)O[C@@H](n2ccc(N)nc2=O)[C@@H]1O,0.612 µM,4.27 µM,> 100 µM,> 100 µM,3.06 µM,0.0365 µM,> 20.8 µM,3.07 µM,> 100 µM,0.395 µM,,,,,,,,,,
